Reference: patent publication US20090275656A1, “Medicinal Compositions of Salts, Chelates and/or Free Acids of Alpha Hydroxyl Organic Acids and Related Processes and Methods” (priority 2005, published 2009)
“Also recorded” adds a separate entry of the source. Like-named read-outs stand apart in the source and are kept apart here.

Experiments:
[1] = tested on: C57BL/6 mouse spleen cells; test: Growth arrest of spleen cells cultured with mitogen Con A (thymidine incorporation); assay type: cell-based; conditions: 48 hours
Experimental: Growth of spleen cells was evaluated in response to the mitogen Con A (2.5 μg/ml) after 48 hours by radioactive thymidine incorporation. Comparison is made at doses in mg/ml for inhibiting 25%, 50% and 90% of the growth of spleen cells; i.e. IC dose values.
Growth of spleen cells was evaluated in response to the mitogen Con A (2.5 μg/ml) after 48 hours by radioactive thymidine incorporation. Comparison is made at concentrations in mg/ml for inhibiting 25%, 50% and 90% of the growth of spleen cells; IC values.
Comparison is made at doses in mg/ml for inhibiting 25%, 50% and 90% of the growth of spleen cells; IC values.
For the study of Citrimix as the calcium/potassium alpha hydroxy citric acid chelate compared to the ammonia chelate of hydroxy citric acid (Nu-Citrimix), inhibition growth of primary spleen cells after in vitro exposure in microtiter cell culture for 48 hours in the presence of mitogen (Con A, 2 ug/ml), was the bioassay procedure used (Akesson C., Lindgren H., Pero R. W., Leanderson T., Ivars F., “An extract of Uncaria Tomentosa inhibiting cell division and NF-kB activity without inducing cell death,” International Immunopharm 3:1889-1900, 2003).

NF-kB = NF-kB inhibition in Jurkat T cells; assay type: cell-based, human; conditions: FIG. 4
Experimental: FIG. 4 illustrates the evaluation of NF-kB in Jurkat T cells as previously described in detail after treatment with quinic acid (H+), quinic aid ammonium chelate neutralized to pH=7.5 or the equivalent amount of […] (NH4Cl).
Independent inhibition of NF-kB by either QA or NH4+ ions. Human Jurkat T cells were incubated together with either QA, QA-NH4+ or NH4Cl, and the degree of inhibition of NF-kB evaluated as described elsewhere. See, FIG. 4. Parra E, et al., 1997. Mol Cell Biol 17:1324-23; Akesson, C., et al., Int. Immunopharmacol., 5(1):219 (2005).

[2] = tested on: human HL-60 leukemic cells; test: In vitro growth inhibition of cultured HL-60 cells by quinic acid salts/chelates (MTT); assay type: cell-based; conditions: 72 hr, concentrations up to 3000 μg/ml
Excerpt: FIG. 1 illustrates in vitro growth inhibition expressed as IC50 values (i.e. the dose that inhibits 50% of growth) induced by various quinic acid salts, chelates or salts/chelates (molecular structure at saturation undetermined) in cultured HL-60 cells. QA-H+=free quinic acid (H+), QA-NH4.+=quinic acid ammonium chelate, QA-Na+=quinic acid sodium salt, QA-K+=quinic acid potaasium chelate, QA-Zn++=quinic acid zinc salt/chelate, QA-Li+=quinic acid lithium salt/chelate, Ca++=quinic acid calcium chelate, quinic acid histidine salt/chaelate=QA-histidine, quinic acid lysine salt/chelate=QA-lysine, and C-Med-100=non pH adjusted water extract.
For the study involving quinic acid salts and chelates (FIG. 1) quinic acid was purchased from Sigma (>99%). QA salts/chelates were synthesized by neutralization to pH=7.5 with the appropriate base, i.e., NH4OH, NaOH, Ca(OH)2, Zn(OH)2, LiOH, KOH, lysine or histidine. Serial dilutions of test compounds were added to human HL-60 leukemic cells (0.05×10^6 cells/ml) in 96-well, flat bottomed microtiter plates to give final concentrations in the cultures up to 3000 μg/ml. The plates were incubated for 72 hr at 37 C, pulsed with 20 μl MTT (5 mg/ml) for 3 hr, and the color estimated spectrophotometrically at 540 nm as described previously. (Schweitzer, C M et al. Spectrophotometric determination of clonogenic capacity of leukemic cells in semisolid microtiter culture systems. Experimental Hematology 21: 573-578, 1993). IC50 values were calculated and compared based on the live/dead ratio of cells.

[3] = tested on: Rat white blood cells (WBC); test: DNA damage recovery in the rat after DXR treatment, white blood cell count; assay type: in vivo; conditions: for Prevention of cell death after exposure to DNA damaging agent DXR: DXR treatment, WBC after 15 days
Excerpt: White blood cell (WBC) growth after 15 days estimated as 10^12WBC/liter blood. DXR=doxorubicin DNA damaging agent.
(§1) Rat white blood cells (WBC) or mouse spleen WBC were increased in vivo after quinic acid oral administration either by gavage or in drinking water from 7.2 to >8.2×10^6 cells/ml or 6.2 to 8.3×10^9 cells/ml, respectively. […] If extrapolated into a lifespan which is logically reasonable, then living to an average age of 90 years would be increased to 112 years by ingesting optimal amounts of quinic acid during one's lifetime.

mouse spleen WBC = test: Mouse spleen WBC after quinic acid oral administration; assay type: in vivo; conditions: oral (gavage or drinking water), increased from 6.2
Excerpt: as §1

DNA repair = DNA repair enhancement in vivo
Excerpt: The discovery began in trying to explain the biological activity of a hot water extract of Cat's Claw bark, Uncaria tomentosa, called C-Med-100. […] After this initial biological characterization, the applicant has set forth to identify the natural product behind DNA repair enhancement as a potential anti-aging therapy. A series of chemical studies have led scientists to first identify carboxy alkyl esters (CAEs) as the bioactives and then it was followed by quinic acid esters (QAEs) being identified as the only bioactive CAEs in cat's claw water extracts. […] bioactive both in vitro and in vivo. […] However, quinic acid is present in water extracts of Cat's Claw as […] in effect in a pro-metabolite form since the QAEs would be hydrolyzed to quinic acid in the gastrointestinal tract.

[4] = 2700 μg/ml; Jacobsen et al 1978; cited from earlier work
[5] = lower animals, oral, highest dose tested 300-600 mg/kg; Adamson et al 1970; cited from earlier work
[6] = human, oral, highest dose tested 90 mg/kg; Beer et al 1951, Adamson et al 1970; cited from earlier work
[7] = mouse, drink water; Akesson et al 2005; cited from earlier work
[8] = rat, oral; Sheng et al 2005; cited from earlier work
[9] = Safety, toxicity and efficacy (Table 2), human; assay type: in vivo; conditions: oral, highest dose tested 70 mg/kg, University of Lund human volunteer n = 2
Excerpt: Quinmax™ is substantially pure quinic acid neutralized with aqueous ammonia to pH=7.5. As a result, in water ammonium ions are also generated which in themselves have potent biological functions. Ammonium ions, for example, stimulate protein synthesis in the GI tract, neutralize lysosomal vesicles thus preventing oxidative stress DNA damage, and inhibit NF-kB mediated inflammatory responses. These are examples of additional biological properties of Quinmax™, which is devoid of any added-on toxicity. […] Jacobsen, L B, Richardson, C L, Floss, H G. 1978. Shikimic acid and quinic acid are not mutagenic in the Ames assay. Lloydia 41(5): 450-452. Here the most important consideration is to compare the highest doses of quinic acid exposure to those shown to have efficacy in various animal models. It is quite apparent that quinic acid doses that far exceed the known efficacious doses of quinic acid have been used in the various animal model systems.
Here the most important consideration is to compare the highest doses of quinic acid exposure to those shown to have efficacy in various animal models. It is quite apparent that quinic acid doses that far exceed the known efficacious doses of quinic acid have been used in the various animal model systems. […] Moreover, Quinmax™ is quinic acid neutralized with aqueous ammonia to pH=7.5. […]

[10] = human, in vivo, po
Experimental: Additional oral administration of high dose QA was carried out after ingestion of 6 gm Quinmax™ in human volunteers at the University of Lund. The purpose of this study was to determine if significant metabolism of QA to hippuric acid occurred when QA was administered in the ammonia chelated form as Quinmax™, a 1:1.6 molar ratio of QA to ammonia ions.
A apparently healthy volunteer drank 6 gm Quinmax™ dissolved in 300 ml water over a 15 min period, and then about 40 ml of peripheral blood (4-red topped vacutainers) were allowed to clot at room temperature to prepare serum samples by centrifugation. The serum sampling points were 0.7 hr, 1.7 hr, 2.7 hr, 3.7 hr, 10.5 hr 12.5 hr, 22 hr, 28 hr and 44 hr. 30 ml serum samples were precipitated with 50% ethanol, taken to dryness under a stream of air, and redissolved in 1 ml of methanol for simultaneous HPLC analysis of quinic acid and hippuric acid.
First to determine when peak serum concentrations of QA occurred and how long they would remain detectable.

With Cl.N [NH4Cl, reference compound] the “IC25 growth of spleen cells (comparison in words)” value [1] was “comparable to the quinic acid ammonium chelate”, the “IC50 growth of spleen cells (comparison in words)” value [1] was “comparable to the quinic acid ammonium chelate” and the “IC90 growth of spleen cells (comparison in words)” value [1] was “comparable to the quinic acid ammonium chelate”. For the same compound, the “NF-kB inhibition (comparison in words)” value (NF-kB) was “as effective as the quinic acid NH4+ chelate”.
For O=C([O-])C1(O)CC(O)C(O)C(O)C1.O=C([O-])C1(O)CC(O)C(O)C(O)C1.[Ca+2] (stereo not drawn) [QA-Ca++, quinic acid calcium chelate], the “IC50 growth inhibition of HL-60 cells (comparison in words)” value (“IC50 growth inhibition of HL-60 cells” for short) ([2]; FIG. 1) was “more effective than known salts such as QA-Na+”.
In the case of O=C(O)[C@]1(O)C[C@@H](O)[C@@H](O)[C@H](O)C1 [Quinic acid], the “Increase in the protection of the DNA from becoming damaged and killing the cells” value ([3]; calculated from rat WBC and mouse spleen WBC increases) is reported as 13-25%, the “Prevention of cell death after exposure to DNA damaging agent DXR” value ([3]; rat) is reported as “prevent cell death” and the “Rat white blood cells (WBC) after oral administration” value ([3]; rat, oral (gavage or drinking water), increased from 7.2) is reported as > 8.2 ×10^6 cells/ml. For the same compound, the “Mouse spleen WBC after oral administration” value (mouse spleen WBC) was 8.3 ×10^9 cells/ml, the “DNA repair enhancing activity (comparison in words)” value (DNA repair) was “as much DNA repair enhancing activity in vivo as did the QAEs” and the “Toxicity evaluated by mutagenicity in the Ames Assay” value [4] was “did not demonstrate any toxicity”. For the same compound, the Toxicity [5] was “None”, the Toxicity [6] was “None” and the “Efficacy (efficacious dose)” value [7] was 250 mg/kg. The “Efficacy (efficacious dose)” value [8] was “≦200 mg/kg”.
With N.O=C(O)[C@]1(O)C[C@@H](O)[C@@H](O)[C@H](O)C1 [Quinmax™, quinic acid ammonium chelate] the “IC50 growth inhibition of HL-60 cells” value ([2]; FIG. 1, listed as QA-NH4+) was “more effective than known salts such as QA-Na+”, the “IC50 growth inhibition of HL-60 cells” value ([2]; FIG. 1, listed as QA-NH4+ chelate) was “much more biologically effective than any other salt or chelate; also recorded: as efficacious as the cat's claw water extract (C-Med-100)” and the “IC25 growth of spleen cells (comparison in words)” value [1] was “dramatically lowering the IC25, IC50 and IC90 values compared to quinic acid (H+)”. For the same compound, the “IC50 growth of spleen cells (comparison in words)” value [1] was “dramatically lowering the IC25, IC50 and IC90 values compared to quinic acid (H+)”, the “IC90 growth of spleen cells (comparison in words)” value [1] was “dramatically lowering the IC25, IC50 and IC90 values compared to quinic acid (H+)” and the “NF-kB inhibition (comparison in words)” value (NF-kB) was “enhanced NF-kB inhibition over quinic acid (H+)”. For the same compound, the Toxicity [9] was “None”, the “Prevention of cell death after exposure to DNA damaging agent DXR” value ([3]; rat) was “prevent cell death” and the “DNA repair enhancing activity (comparison in words)” value (DNA repair) was “as efficacious as Cat's Claw water extracts such as C-Med-100”. For the same compound, the “Time during which hippuric acid could be measured in serum” value [10] was 3.7 to 12.5 h, the “Time of peak serum concentrations of QA” value [10] was “around 10.5 hr” and the “Efficacy (efficacious dose)” value [8] was “≦200 mg/kg”.
